Key:
5-LO = target: T1, 5-LO (Homo sapiens, UniProt P09917); test: 5-LO product formation in intact PMNL; conditions: PMNL, read-out: inhibition of 5-LO product formation
T1 sequence (P09917 1-674): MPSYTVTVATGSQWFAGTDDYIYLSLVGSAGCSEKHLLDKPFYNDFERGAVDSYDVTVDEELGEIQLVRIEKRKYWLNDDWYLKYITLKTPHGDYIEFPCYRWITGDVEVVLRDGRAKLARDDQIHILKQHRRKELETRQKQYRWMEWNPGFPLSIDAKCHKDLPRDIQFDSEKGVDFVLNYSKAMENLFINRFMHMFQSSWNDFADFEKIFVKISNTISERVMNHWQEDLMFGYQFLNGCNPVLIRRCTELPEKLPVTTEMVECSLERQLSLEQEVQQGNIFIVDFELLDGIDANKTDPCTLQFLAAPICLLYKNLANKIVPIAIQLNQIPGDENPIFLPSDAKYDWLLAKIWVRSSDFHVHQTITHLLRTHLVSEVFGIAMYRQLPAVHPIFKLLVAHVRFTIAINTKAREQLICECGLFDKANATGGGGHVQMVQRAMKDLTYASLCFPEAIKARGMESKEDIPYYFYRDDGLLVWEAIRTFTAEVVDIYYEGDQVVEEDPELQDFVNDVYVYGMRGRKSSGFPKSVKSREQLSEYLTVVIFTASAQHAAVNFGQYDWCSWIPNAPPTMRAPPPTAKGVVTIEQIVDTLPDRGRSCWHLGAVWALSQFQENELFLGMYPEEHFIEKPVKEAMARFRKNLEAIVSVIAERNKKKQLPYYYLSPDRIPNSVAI
Description: After 10 min at 37 °C, the reaction was stopped by addition of ice-cold methanol (1 mL). HCl (30 μL, 1 M), prostaglandin B1 (200 ng) and PBS (500 μL) were added and the formed metabolites were extracted and analyzed by HPLC as described previously [96].

A549 lung adenocarcinoma [1] = test: Cell viability, MTT assay, A549; format: cell-based, human; conditions: Homo sapiens, A549; 72 h, mean ± SD
Description: (§1) Five human cell lines (A375 melanoma, A549 lung adenocarcinoma, HCT116 and HT29 colorectal carcinoma, MDA-MB-231 triple-negative breast adenocarcinoma) were used to study the antitumor effects of the di-tert-butylphenols and their respective carborane analogs. All selected cell lines were derived from inflammation-associated tumors.
(§2) After the incubation period, the supernatant was discarded from the wells, and the cells were washed two times with 200 µL of PBS. Next, MTT solution at a final concentration of 0.5 mg/mL was added and incubated at 37 °C until purple formazan crystals were formed (30 min to one hour). After incubation, the dye was discarded. In order to dissolve the formed formazan crystals DMSO was added, and the absorbance was measured at λmax = 540 nm, with the reference/background wavelength of 670 nm. All results are expressed as a percentage of the control value which was arbitrary set to 100%. After 72 h treatment, cells were washed with 200 µL of PBS and fixed with 4% paraformaldehyde (PFA) for 15 min at room temperature (RT). Next, cells were stained with 1% CV solution. After 20 min, cells were washed in tap water and dried on air. Dye was dissolved in 33% acetic acid and the absorbance was measured at λmax = 540 nm, with the reference/background wavelength of 670 nm. Results were expressed as a percentage of the control value which was arbitrary set to 100%.
(§3) 1. General methods, materials, and procedures
(§4) 1.1.1. Reagents and cells
(§5) Reagents and cells were obtained from following manufacturers: Capricorn Scientific GmbH (Hessen, Germany) – Culture medium RPMI-1640, Dulbecco's Modified Eagle Medium (DMEM), and fetal bovine serum (FBS). Serva (Heidelberg, Germany) – Paraformaldehyde (PFA). Sigma (St. Louis, MO, USA) – Ethylenediaminetetraacetic acid (EDTA), Dimethyl sulfoxide (DMSO), chloroquine, CV, Triton X-100, RNase, PI, PBS, 3-MA, CFSE, and fluorescent mounting medium. AppliChem (MO, USA) –MTT. Thermo Fisher Scientific (Waltham, MA, USA) – DHR. R&D Systems (Minneapolis, MN, USA) – ApoStat. BD (Pharmingen, San Diego, SAD) – Annexin V-FITC (AnnV). Biological Industries (Cromwell, CT, USA) – Penicillin Streptomycin solution. American Type Culture Collection (ATCC, Manassas, Virginia, USA) – Human lung carcinoma (A549), human breast adenocarcinoma (MDA-MB-231), human colorectal ade-nocarcinoma (HT-29), human colorectal carcinoma (HCT116) and human melanoma (A375).
(§6) Cell lines (A375, HCT116, HT-29 and MDA-MB-231) were cultivated in HEPES-buffered RPMI-1640 medium while A549 cell line was cultivated in Dulbecco's Modified Eagle Medium (DMEM) which were previously supplemented with 10% heat-inactivated FBS, penicillin (100 units/mL), and streptomycin (100 μg/mL). All cells were kept at 37 °C in a humidified atmosphere with 5% CO2. For viability determi-nation cells were seeded at following densities in 96-well plates: 4 x 10^3 cells/well (A375, HT-29 and MDA-MB-231), 5 x 10^3 cells/well (HCT116), and 3 x 10^3 cells/well (A549). […]
(§7) Afterwards, cells were washed with phosphate-buffered saline (PBS) and stained with AnnV (15 μg/mL) and PI (15 μg/mL). After 15 min incubation at room temperature (RT) protected from light the cells were resuspended in AnnV-binding buffer and analysed using flow cytom-etry. HCT116 cells were incubated with pan-caspase inhibitor Apostat for 30 min at 37 °C to determine whether detected apoptosis was mediated by caspase activation. Afterwards, cells were washed with PBS and analyzed using flow cytometry. HCT116 cells were stained with 1 µg/mL of AO solution for 15 min at 37 °C to detect the presence of autophagic cell death. Afterwards cells were washed with PBS, resuspended and analyzed by flow cytometry (CyFlow® Space Partec using the PartecFloMax® software

A549 lung adenocarcinoma [2] = test: Cell viability, crystal violet (CV) assay, A549; format: cell-based; conditions: Homo sapiens, 72 h, mean ± SD
Description: as §1, §2, §3, §4
as §5, with “American Type Culture Collection (ATCC, Manassas, Virginia, USA) – Human lung carcinoma (A549), human breast adenocarcinoma (MDA-MB-231), human colorectal ade-nocarcinoma (HT-29), human colorectal carcinoma (HCT116) and human melanoma (A375).” left out
as §7, with “HCT116 cells were stained with 1 µg/mL of AO solution for 15 min at 37 °C to detect the presence of autophagic cell death.” left out

A375 melanoma [3] = test: Cell viability, MTT assay, A375; format: cell-based, human; conditions: Homo sapiens, A-375; 72 h, mean ± SD
Description: as §1, §2, §3, §4, §5, §6
(§8) Afterwards, cells were washed with phosphate-buffered saline (PBS) and stained with AnnV (15 μg/mL) and PI (15 μg/mL). […]
(§9) PBS and analyzed using flow cytometry. HCT116 cells were stained with 1 µg/mL of AO solution for 15 min at 37 °C to detect the presence of autophagic cell death. Afterwards cells were washed with PBS, resuspended and analyzed by flow cytometry (CyFlow® Space Partec using the PartecFloMax® software

[4] = tested on: HCT116 colorectal carcinoma; test: Cell viability, crystal violet (CV) assay, HCT116; format: cell-based; conditions: Homo sapiens, HCT-116; 72 h, mean ± SD
Description: as §1, §2, §3, §4
as §5, with “American Type Culture Collection (ATCC, Manassas, Virginia, USA) – Human lung carcinoma (A549), human breast adenocarcinoma (MDA-MB-231), human colorectal ade-nocarcinoma (HT-29), human colorectal carcinoma (HCT116) and human melanoma (A375).” left out
as §7, with “HCT116 cells were stained with 1 µg/mL of AO solution for 15 min at 37 °C to detect the presence of autophagic cell death.” left out

physchem = conditions: pH 7.4
[5] = tested on: HT-29 colorectal carcinoma; test: Cell viability, MTT assay, HT-29; format: cell-based, human; conditions: Homo sapiens, HT-29; 72 h, mean ± SD
Description: as §1, §2, §3, §4, §5, §6, §7

[6] = tested on: MDA-MB-231 triple-negative breast adenocarcinoma; test: Cell viability, crystal violet (CV) assay, MDA-MB-231; format: cell-based; conditions: Homo sapiens, 72 h, mean ± SD
Description: as §1, §2, §3, §4
as §5, with “American Type Culture Collection (ATCC, Manassas, Virginia, USA) – Human lung carcinoma (A549), human breast adenocarcinoma (MDA-MB-231), human colorectal ade-nocarcinoma (HT-29), human colorectal carcinoma (HCT116) and human melanoma (A375).” left out
as §7, with “HCT116 cells were stained with 1 µg/mL of AO solution for 15 min at 37 °C to detect the presence of autophagic cell death.” left out

[7] = tested on: HT-29 colorectal carcinoma; test: Cell viability, crystal violet (CV) assay, HT-29; format: cell-based; conditions: Homo sapiens, 72 h, mean ± SD
Description: as §1, §2, §3, §4
as §5, with “American Type Culture Collection (ATCC, Manassas, Virginia, USA) – Human lung carcinoma (A549), human breast adenocarcinoma (MDA-MB-231), human colorectal ade-nocarcinoma (HT-29), human colorectal carcinoma (HCT116) and human melanoma (A375).” left out
as §7, with “HCT116 cells were stained with 1 µg/mL of AO solution for 15 min at 37 °C to detect the presence of autophagic cell death.” left out

[8] = tested on: MDA-MB-231 triple-negative breast adenocarcinoma; test: Cell viability, MTT assay, MDA-MB-231; format: cell-based, human; conditions: Homo sapiens, MDA-MB-231; 72 h, mean ± SD
Description: as §1, §2, §3, §4, §5, §6, §7

[9] = tested on: HCT116 colorectal carcinoma; test: Cell viability, MTT assay, HCT116; format: cell-based, human; conditions: Homo sapiens, HCT-116; 72 h, mean ± SD
Description: as §1, §2, §3, §4, §5, §6, §8, §9

A375 melanoma [10] = test: Cell viability, crystal violet (CV) assay, A375; format: cell-based; conditions: Homo sapiens, A-375; 72 h, mean ± SD
Description: as §1, §2, §3, §4
as §5, with “American Type Culture Collection (ATCC, Manassas, Virginia, USA) – Human lung carcinoma (A549), human breast adenocarcinoma (MDA-MB-231), human colorectal ade-nocarcinoma (HT-29), human colorectal carcinoma (HCT116) and human melanoma (A375).” left out
as §7, with “HCT116 cells were stained with 1 µg/mL of AO solution for 15 min at 37 °C to detect the presence of autophagic cell death.” left out

[11] = tested on: primary peritoneal exudate cells; test: Viability of primary peritoneal exudate cells, CV assay; format: cell-based; conditions: 72 h, cells from healthy mice
Description: Primary peritoneal exudates cells (PEC) isolated from C57BL/6 mice were used to estimate the selec-
Mice were obtained from the animal facility at the Institute for Biological Research “Siniša Stanković” - National Institute of the Republic of Serbia, University of Belgrade (Belgrade, Serbia). PEC were cultivated in HEPES-buffered (HEPES = 4-
5% heat-inactivated fetal bovine serum (FBS) and antibiotics under standard growth conditions (37 °C, 5% CO2). For viability determination cells were seeded at a density of 2 x 10^5 cells/well in 96-well plates.
Non-adherent cells were removed two hours after seeding and treatment was applied. Cell viability was determined after 72 h using a crystal violet (CV) assay.
the indicated concentrations for 72 h. Cell viability was determined by the CV test. The data are presented as a mean ± SD from one repre-
sentative out of three independent experiments. *p<0.05 refer to untreated cultures.

SMILES	inhibition at 0.1 µM (5-LO) [%]	IC50 (A549 lung adenocarcinoma [1]) [µM]	IC50 (A549 lung adenocarcinoma [2]) [µM]	IC50 (A375 melanoma [3]) [µM]	IC50 [4] [µM]	chromatographic logD (physchem)	IC50 [5] [µM]	IC50 [6] [µM]	IC50 [7] [µM]	IC50 [8] [µM]	IC50 [9] [µM]	IC50 (A375 melanoma [10]) [µM]	viability of primary peritoneal exudate cells [11]
CC(=O)N(O)C/C=C/c1cccc(Oc2ccccc2)c1 [BWA4C, N-[(E)-3-(3-Phenoxyphenyl)prop-2-enyl]acetohydroxamic acid]	92.5	–	–	–	–	–	–	–	–	–	–	–	–
CON1CCC(=Cc2cc(C(C)(C)C)c(O)c(C(C)(C)C)c2)C1=O [Compound E-5110, 3-([3,5-bis(1,1-dimethylethyl)-4-hydroxyphenyl]methylene)-1-methoxy-2-pyrrolidinone]	–	22.1 ± 1.6	41.1 ± 4.3	12.9 ± 1.1	39.6 ± 2.8	3.35	25.6 ± 2.6	47.3 ± 1.7	39.8 ± 2.1	34.2 ± 1.2	25.1 ± 1.1	33.5 ± 1.7	–
CC(C)(C)c1cc(C(=O)c2cccs2)cc(C(C)(C)C)c1O [Compound R-830, 2,6-di-tert-butyl-4-(2’-thenoyl)phenol]	–	19 ± 0.7	32.6 ± 1.3	16.7 ± 3.1	30.8 ± 3.2	3.91	19.4 ± 0.4	34 ± 1.6	24.9 ± 1.3	33.3 ± 1.2	20.6 ± 0.4	29.4 ± 2.3	diminished the viability of primary cells at 100 µM

Reference: paper PMC10254233, “Synthesis and In Vitro Biological Evaluation of p-Carborane-Based Di-tert-butylphenol Analogs” (Molecules, 2023)
